Structures are written as SMILES.

Common to all, as to assay type: in vivo, mouse
Data set [1] deals with Fas-Lpr/P23H mice. Description: Retinal histology and IHC staining (DAPI, m-opsin, rhodopsin). The settings on record: HCQ versus untreated. Here is the method:
(§1) This study was conducted in the Lpr/P23H mouse line, a Fas-deficient mouse line that is also a model of retinitis pigmentosa. Hydroxychloroquine (HCQ) was given in the drinking water at 1.2 mg/ml starting at 21 days post-natal (P21) to reduce autophagy flux (FIG. 1). Photoreceptor death was assessed by Terminal deoxynucleotidyl transferase (TdT) dUTP Nick-End Labeling (TUNEL) cell counts. Retinal structure was examined by histology and optical coherence tomography (OCT) analysis. Electroretinogram (ERG) recording and immunohistochemistry (IHC) staining of rhodopsin and m-opsin were performed to evaluate the retinal function. Transcript levels of inflammatory cytokines, CCL-2 and CCL-3, were analyzed by rt-PCR.

The test system of data set [2] is Fas-Lpr/P23H mice. Description: TUNEL cell counts for photoreceptor death in retina. The settings on record: HCQ 1.2 mg/ml in drinking water from P21, versus untreated mice, FIG. 2B. The procedure: as §1
The next data set concerns CCL-2. Description: Transcript level of inflammatory cytokine CCL-2 in retina by rt-PCR. The settings on record: Fas-Lpr/P23H mice, HCQ 1.2 mg/ml in drinking water from P21, versus untreated mice. The procedure:
as §1

For data set [3], the system named is Fas-Lpr/P23H mice. Description: ONL thickness by optical coherence tomography (OCT), Fas-deficient retinitis pigmentosa model. Conditions: 3- and 4-months old, OCT at 250 and 500 μm from the optic nerve, inferior and superior retina, HCQ in drinking water versus untreated. The procedure: as §1
A proxy for retinal cell death is […] (ONL) thickness, with thicker ONLs correlating to less cell death.

For data set [4], the system named is Fas-Lpr/P23H mice. Description: Electroretinogram (ERG) recording, Fas-deficient retinitis pigmentosa model. The settings on record: 3-month and 4-month old Fas-LPR/P23H mice; HCQ versus untreated. The procedure:
as §1
Photoreceptor function was assessed using electroretinograms (ERGs).

A further data set relates to CCL-3. Description: Transcript level of inflammatory cytokine CCL-3 in retina by rt-PCR. Conditions: Fas-Lpr/P23H mice, HCQ 1.2 mg/ml in drinking water from P21, versus untreated mice. The procedure: as §1

In the case of `CCN(CCO)CCCC(C)Nc1ccnc2cc(Cl)ccc12` (centres unmarked) [HCQ, Hydroxychloroquine], the “photoreceptor survival (histological images)” value in the data set on Fas-Lpr/P23H mice [1] (3-month and 4-month old Fas-LPR/P23H mice, FIG. 6) is given as “greater photoreceptor survival”. Moreover, the “survival of cell bodies (DAPI), cones (m-opsin) and rods (rhodopsin), IHC images” value with Fas-Lpr/P23H mice [1] (3-month and 4-month old Fas-Lpr/P23H mice, FIG. 7A, 7B) is “greater survival of cell bodies, cones, and rods”. Further, the “TUNEL-positive cell counts in the retina” value in the data set on Fas-Lpr/P23H mice [2] is on record as “statistically significantly fewer”. The “production of inflammatory cytokine CCL-2” value in the data set on CCL-2 is “lowered production”. For the same molecule, the “optic nerve layer (ONL) thickness” value in the data set on Fas-Lpr/P23H mice [3] is listed as “significantly greater ONL thickness”. Besides, in the data set on Fas-Lpr/P23H mice [4], the “scotopic ERG a-wave amplitude” value is listed as “significantly greater amplitude” and the “scotopic ERG b-wave amplitude” value was “significantly greater amplitude”. For the same molecule, the “production of inflammatory cytokine CCL-3” value with CCL-3 is “lowered production”.

Values taken from patent US20250360123A1, “METHODS AND COMPOSITIONS FOR TREATING INHERITED RETINAL DEGENERATION” (ONL Therapeutics, Inc., priority 2024, published 2025).
